ChEMBL document CHEMBL1764978, “Cysteine mapping in conformationally distinct kinase nucleotide binding sites: application to the design of selective covalent inhibitors” (J Med Chem, 2011)
Values belong to the compound of their own block, whether it stands above or below them.

How the values were obtained:
[1] = target: T1, Mast/stem cell growth factor receptor Kit (Homo sapiens, UniProt P10721); experiment: Inhibition of human wild type KIT assessed as [gamma33P]ATP incorporation into polyGluTyr after 60 mins by microplate scintillation counting
T1 sequence (P10721 whole entry): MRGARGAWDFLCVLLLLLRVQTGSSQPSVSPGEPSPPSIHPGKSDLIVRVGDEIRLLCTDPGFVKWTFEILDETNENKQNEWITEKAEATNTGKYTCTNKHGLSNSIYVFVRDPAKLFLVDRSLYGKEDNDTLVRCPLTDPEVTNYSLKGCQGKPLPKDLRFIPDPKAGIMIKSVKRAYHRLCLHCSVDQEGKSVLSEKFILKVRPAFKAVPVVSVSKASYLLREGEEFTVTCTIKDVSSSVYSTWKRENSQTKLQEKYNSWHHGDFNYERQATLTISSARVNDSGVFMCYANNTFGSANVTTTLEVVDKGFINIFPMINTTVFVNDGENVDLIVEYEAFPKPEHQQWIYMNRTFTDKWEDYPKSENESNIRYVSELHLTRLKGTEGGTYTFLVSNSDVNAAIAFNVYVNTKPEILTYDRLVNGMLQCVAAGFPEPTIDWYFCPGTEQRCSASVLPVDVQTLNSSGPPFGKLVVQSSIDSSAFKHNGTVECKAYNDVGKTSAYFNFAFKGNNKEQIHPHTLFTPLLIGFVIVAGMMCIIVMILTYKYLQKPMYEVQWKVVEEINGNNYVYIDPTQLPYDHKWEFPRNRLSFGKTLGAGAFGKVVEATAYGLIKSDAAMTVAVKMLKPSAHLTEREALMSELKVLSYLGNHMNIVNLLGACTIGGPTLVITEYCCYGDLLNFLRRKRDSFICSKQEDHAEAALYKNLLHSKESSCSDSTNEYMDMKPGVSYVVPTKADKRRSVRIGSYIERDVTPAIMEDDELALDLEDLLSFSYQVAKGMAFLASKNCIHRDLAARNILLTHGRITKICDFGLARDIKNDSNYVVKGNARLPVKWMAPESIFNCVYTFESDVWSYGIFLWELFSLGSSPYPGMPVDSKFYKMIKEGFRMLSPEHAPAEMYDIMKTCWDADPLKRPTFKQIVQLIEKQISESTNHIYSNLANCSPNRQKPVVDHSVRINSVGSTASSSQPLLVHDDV

[2] = target: Tyrosine-protein kinase ABL1 (Homo sapiens, UniProt P00519); experiment: Inhibition of human wild type ABL1 assessed as [gamma33P]ATP incorporation into poly-Ala-Glu-Lys-Tyr after 60 mins by microplate scintillation counting
Sequence of Tyrosine-protein kinase ABL1 (P00519 whole entry): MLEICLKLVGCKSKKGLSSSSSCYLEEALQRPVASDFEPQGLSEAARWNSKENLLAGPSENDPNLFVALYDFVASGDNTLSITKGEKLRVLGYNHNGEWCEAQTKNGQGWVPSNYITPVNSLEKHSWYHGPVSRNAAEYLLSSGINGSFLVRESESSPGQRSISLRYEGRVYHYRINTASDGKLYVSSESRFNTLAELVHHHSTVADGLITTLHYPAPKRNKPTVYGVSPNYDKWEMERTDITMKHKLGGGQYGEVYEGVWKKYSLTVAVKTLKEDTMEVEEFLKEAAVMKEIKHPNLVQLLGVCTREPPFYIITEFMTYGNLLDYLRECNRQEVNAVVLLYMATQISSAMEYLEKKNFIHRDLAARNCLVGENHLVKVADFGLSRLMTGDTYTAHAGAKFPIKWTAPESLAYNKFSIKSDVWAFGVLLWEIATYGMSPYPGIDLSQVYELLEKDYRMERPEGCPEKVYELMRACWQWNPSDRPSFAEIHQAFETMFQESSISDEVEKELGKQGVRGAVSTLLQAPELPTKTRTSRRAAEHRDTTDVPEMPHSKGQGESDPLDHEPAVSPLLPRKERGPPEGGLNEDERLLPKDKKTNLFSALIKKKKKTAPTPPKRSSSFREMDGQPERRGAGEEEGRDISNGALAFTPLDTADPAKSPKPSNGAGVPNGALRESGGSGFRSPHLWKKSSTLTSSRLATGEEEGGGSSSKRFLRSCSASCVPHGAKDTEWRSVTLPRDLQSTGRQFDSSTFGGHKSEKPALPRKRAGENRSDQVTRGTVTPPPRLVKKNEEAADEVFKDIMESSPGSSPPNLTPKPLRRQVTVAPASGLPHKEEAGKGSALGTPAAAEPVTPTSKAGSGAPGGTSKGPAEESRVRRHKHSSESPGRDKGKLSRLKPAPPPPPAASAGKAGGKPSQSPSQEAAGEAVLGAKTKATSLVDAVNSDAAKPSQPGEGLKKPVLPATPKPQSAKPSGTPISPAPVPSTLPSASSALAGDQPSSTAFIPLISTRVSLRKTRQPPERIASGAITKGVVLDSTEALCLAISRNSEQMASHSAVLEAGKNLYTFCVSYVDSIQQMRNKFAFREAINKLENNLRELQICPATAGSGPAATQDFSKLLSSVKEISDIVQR

[3] = target: Serine/threonine-protein kinase 17A (Homo sapiens) (UniProt Q9UEE5); experiment: Binding affinity to human DRAK1 valine residue assessed as residual binding at 10 uM by site dependent competitive binding assay
Sequence of Serine/threonine-protein kinase 17A (Homo sapiens) (Q9UEE5 whole entry, the tested form may be a part): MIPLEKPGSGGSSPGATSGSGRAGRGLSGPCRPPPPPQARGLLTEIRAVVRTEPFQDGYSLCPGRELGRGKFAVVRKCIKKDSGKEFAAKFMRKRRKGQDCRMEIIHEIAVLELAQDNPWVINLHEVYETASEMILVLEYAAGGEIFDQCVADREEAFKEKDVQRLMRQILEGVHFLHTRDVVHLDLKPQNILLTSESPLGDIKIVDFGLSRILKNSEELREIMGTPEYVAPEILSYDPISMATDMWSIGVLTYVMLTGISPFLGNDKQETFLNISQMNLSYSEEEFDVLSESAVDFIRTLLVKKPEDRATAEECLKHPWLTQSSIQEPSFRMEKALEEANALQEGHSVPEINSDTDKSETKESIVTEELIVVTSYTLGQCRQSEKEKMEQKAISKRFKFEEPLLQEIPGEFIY

[4] = target: Fibroblast growth factor receptor 4 (Homo sapiens) (UniProt P22455); experiment: Binding affinity to human Fgfr4 assessed as residual binding at 10 uM by site dependent competitive binding assay
[5] = target: Cyclin-G-associated kinase (Homo sapiens) (UniProt O14976); experiment: Binding affinity to human GAK isoleucine residue assessed as residual binding at 10 uM by site dependent competitive binding assay
[6] = target: Fibroblast growth factor receptor 3 (Homo sapiens) (UniProt P22607); experiment: Binding affinity to human Fgfr3 assessed as residual binding at 10 uM by site dependent competitive binding assay
[7] = target: Serine/threonine-protein kinase MARK2 (Homo sapiens) (UniProt Q7KZI7); experiment: Binding affinity to human Mark2 isoleucine residue assessed as residual binding at 10 uM by site dependent competitive binding assay
[8] = target: Tyrosine-protein kinase Blk (Homo sapiens) (UniProt P51451); experiment: Binding affinity to human BLK serine residue assessed as residual binding at 10 uM by site dependent competitive binding assay
Sequence of Tyrosine-protein kinase Blk (Homo sapiens) (P51451 2-505 limits assumed): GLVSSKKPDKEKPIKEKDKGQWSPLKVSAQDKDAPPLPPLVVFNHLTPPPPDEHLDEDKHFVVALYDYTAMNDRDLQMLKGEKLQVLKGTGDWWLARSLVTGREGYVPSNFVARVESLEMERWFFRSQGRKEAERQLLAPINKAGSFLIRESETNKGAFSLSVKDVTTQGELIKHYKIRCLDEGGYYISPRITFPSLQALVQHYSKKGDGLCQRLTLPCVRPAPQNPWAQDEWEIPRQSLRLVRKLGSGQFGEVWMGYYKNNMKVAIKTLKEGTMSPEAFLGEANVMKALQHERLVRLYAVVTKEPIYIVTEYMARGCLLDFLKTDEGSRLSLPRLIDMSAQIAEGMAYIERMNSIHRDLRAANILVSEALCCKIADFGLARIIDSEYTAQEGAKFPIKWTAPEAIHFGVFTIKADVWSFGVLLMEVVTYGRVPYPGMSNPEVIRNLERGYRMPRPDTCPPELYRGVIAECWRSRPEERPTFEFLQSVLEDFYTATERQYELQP

[9] = target: Vascular endothelial growth factor receptor 1 (Homo sapiens) (UniProt P17948); experiment: Binding affinity to human Flt1 assessed as residual binding at 10 uM by site dependent competitive binding assay
[10] = target: Vascular endothelial growth factor receptor 3 (Homo sapiens) (UniProt P35916); experiment: Binding affinity to human Flt4 assessed as residual binding at 10 uM by site dependent competitive binding assay
[11] = target: Tyrosine-protein kinase Fer (Homo sapiens) (UniProt P16591); experiment: Binding affinity to human Fer assessed as residual binding at 10 uM by site dependent competitive binding assay
[12] = target: Ephrin type-A receptor 8 (Homo sapiens) (UniProt P29322); experiment: Binding affinity to human EPHA8 tyrosine residue assessed as residual binding at 10 uM by site dependent competitive binding assay
[13] = target: Tyrosine-protein kinase Lyn (Homo sapiens) (UniProt P07948); experiment: Binding affinity to human LYN tyrosine residue assessed as residual binding at 1 uM by site dependent competitive binding assay
[14] = system: Mast/stem cell growth factor receptor Kit (Homo sapiens), P10721 [V559D,V654A]; experiment: Binding affinity to human Kit V559D/V654A mutant cysteine residue assessed as residual binding at 1 uM by site dependent competitive binding assay
[15] = target: Fibroblast growth factor receptor 4 (Homo sapiens) (UniProt P22455); experiment: Binding affinity to human Fgfr4 assessed as residual binding at 1 uM by site dependent competitive binding assay
[16] = target: Mitogen-activated protein kinase 8 (Homo sapiens) (UniProt P45983); experiment: Binding affinity to human Jnk1 isoleucine residue assessed as residual binding at 1 uM by site dependent competitive binding assay
[17] = target: Serine/threonine-protein kinase 17A (Homo sapiens) (UniProt Q9UEE5); experiment: Binding affinity to human DRAK1 valine residue assessed as residual binding at 1 uM by site dependent competitive binding assay
[18] = target: Epithelial discoidin domain-containing receptor 1 (Homo sapiens) (UniProt Q08345); experiment: Binding affinity to human DDR1 phenylalanine residue assessed as residual binding at 1 uM by site dependent competitive binding assay
[19] = target: Vascular endothelial growth factor receptor 1 (Homo sapiens) (UniProt P17948); experiment: Binding affinity to human Flt1 assessed as residual binding at 1 uM by site dependent competitive binding assay
[20] = target: Mitogen-activated protein kinase 10 (Homo sapiens) (UniProt P53779); experiment: Binding affinity to human Jnk3 isoleucine residue assessed as residual binding at 1 uM by site dependent competitive binding assay
[21] = system: Serine/threonine-protein kinase B-raf (Homo sapiens), P15056 [V600E]; experiment: Binding affinity to human BRAF V600E mutant isoleucine residue assessed as residual binding at 1 uM by site dependent competitive binding assay
[22] = target: Macrophage colony-stimulating factor 1 receptor (Homo sapiens) (UniProt P07333); experiment: Binding affinity to human CSF1R cysteine residue assessed as residual binding at 1 uM by site dependent competitive binding assay
Sequence of Macrophage colony-stimulating factor 1 receptor (Homo sapiens) (P07333 whole entry): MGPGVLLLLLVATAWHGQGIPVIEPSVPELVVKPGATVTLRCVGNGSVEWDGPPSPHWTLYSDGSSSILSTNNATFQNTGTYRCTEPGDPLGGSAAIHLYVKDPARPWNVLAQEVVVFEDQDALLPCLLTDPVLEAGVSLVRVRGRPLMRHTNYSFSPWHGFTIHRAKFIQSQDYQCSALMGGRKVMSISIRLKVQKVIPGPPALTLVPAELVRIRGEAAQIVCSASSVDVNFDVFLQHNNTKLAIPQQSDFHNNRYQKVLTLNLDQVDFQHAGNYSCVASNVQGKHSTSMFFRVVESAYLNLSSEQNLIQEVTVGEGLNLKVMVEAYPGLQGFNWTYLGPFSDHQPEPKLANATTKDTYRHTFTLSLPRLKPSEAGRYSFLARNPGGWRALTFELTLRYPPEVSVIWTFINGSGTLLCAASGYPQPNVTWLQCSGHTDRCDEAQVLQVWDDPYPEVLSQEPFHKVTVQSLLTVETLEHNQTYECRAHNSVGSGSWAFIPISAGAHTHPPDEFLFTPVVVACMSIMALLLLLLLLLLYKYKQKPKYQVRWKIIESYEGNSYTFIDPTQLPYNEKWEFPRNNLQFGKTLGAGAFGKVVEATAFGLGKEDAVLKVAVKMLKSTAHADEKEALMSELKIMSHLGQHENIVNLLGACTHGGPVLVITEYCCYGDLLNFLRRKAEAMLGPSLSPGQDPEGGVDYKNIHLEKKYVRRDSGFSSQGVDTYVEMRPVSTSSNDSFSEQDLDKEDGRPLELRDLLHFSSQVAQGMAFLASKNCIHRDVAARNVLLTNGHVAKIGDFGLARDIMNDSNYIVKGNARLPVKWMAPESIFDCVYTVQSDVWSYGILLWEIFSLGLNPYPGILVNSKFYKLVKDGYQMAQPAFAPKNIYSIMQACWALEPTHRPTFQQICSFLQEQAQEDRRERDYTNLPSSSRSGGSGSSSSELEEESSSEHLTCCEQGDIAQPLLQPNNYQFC

[23] = target: Cyclin-dependent kinase-like 1 (Homo sapiens) (UniProt Q00532); experiment: Binding affinity to human CDKL1 assessed as residual binding at 1 uM by site dependent competitive binding assay
[24] = target: Tyrosine-protein kinase Blk (Homo sapiens) (UniProt P51451); experiment: Binding affinity to human BLK serine residue assessed as residual binding at 1 uM by site dependent competitive binding assay
[25] = target: T2, Platelet-derived growth factor receptor alpha (Homo sapiens, UniProt P16234); experiment: Inhibition of human wild type PDGFRalpha assessed as [gamma33P]ATP incorporation into poly-Ala-Glu-Lys-Tyr after 60 mins by microplate scintillation counting
T2 sequence (P16234 whole entry): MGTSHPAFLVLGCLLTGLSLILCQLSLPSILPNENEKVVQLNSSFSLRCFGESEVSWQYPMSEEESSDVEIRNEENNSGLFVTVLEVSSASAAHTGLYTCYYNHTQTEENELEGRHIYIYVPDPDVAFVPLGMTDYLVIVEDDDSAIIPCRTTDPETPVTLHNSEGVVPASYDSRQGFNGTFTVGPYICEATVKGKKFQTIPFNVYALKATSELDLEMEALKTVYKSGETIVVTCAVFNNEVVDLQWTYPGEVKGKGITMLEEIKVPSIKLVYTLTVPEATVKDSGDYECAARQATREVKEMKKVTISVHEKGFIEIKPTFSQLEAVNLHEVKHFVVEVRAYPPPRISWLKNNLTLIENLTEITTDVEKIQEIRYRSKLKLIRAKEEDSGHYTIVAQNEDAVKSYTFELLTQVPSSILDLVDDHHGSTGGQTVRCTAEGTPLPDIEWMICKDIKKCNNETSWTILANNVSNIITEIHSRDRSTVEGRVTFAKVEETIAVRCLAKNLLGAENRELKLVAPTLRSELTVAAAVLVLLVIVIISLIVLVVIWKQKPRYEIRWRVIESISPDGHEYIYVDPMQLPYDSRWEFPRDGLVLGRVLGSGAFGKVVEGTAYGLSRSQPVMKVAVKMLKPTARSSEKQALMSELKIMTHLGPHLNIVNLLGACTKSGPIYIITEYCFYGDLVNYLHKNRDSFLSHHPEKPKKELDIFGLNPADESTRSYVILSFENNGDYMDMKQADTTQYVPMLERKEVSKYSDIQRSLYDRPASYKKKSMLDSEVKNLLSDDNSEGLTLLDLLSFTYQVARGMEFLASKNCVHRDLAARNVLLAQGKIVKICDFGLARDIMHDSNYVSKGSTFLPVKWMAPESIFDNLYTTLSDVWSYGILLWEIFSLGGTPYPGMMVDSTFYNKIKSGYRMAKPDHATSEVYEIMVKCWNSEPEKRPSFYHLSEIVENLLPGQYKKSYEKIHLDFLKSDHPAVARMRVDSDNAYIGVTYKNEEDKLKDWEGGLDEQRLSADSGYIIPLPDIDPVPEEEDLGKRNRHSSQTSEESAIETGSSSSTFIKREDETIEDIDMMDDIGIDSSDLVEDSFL

[26] = target: Cyclin-G-associated kinase (Homo sapiens) (UniProt O14976); experiment: Binding affinity to human GAK isoleucine residue assessed as residual binding at 1 uM by site dependent competitive binding assay
[27] = target: T2, Platelet-derived growth factor receptor alpha; experiment: Binding affinity to human PDGFRalpha cysteine residue assessed as residual binding at 1 uM by site dependent competitive binding assay
[28] = target: Calcium/calmodulin-dependent protein kinase kinase 1 (Homo sapiens) (UniProt Q8N5S9); experiment: Binding affinity to human CAMKK1 isoleucine residue assessed as residual binding at 1 uM by site dependent competitive binding assay
[29] = target: Platelet-derived growth factor receptor beta (Homo sapiens) (UniProt P09619); experiment: Binding affinity to human PDGFRbeta assessed as residual binding at 1 uM by site dependent competitive binding assay
[30] = target: Fibroblast growth factor receptor 2 (Homo sapiens) (UniProt P21802); experiment: Binding affinity to human Fgfr2 assessed as residual binding at 1 uM by site dependent competitive binding assay
[31] = system: Mast/stem cell growth factor receptor Kit (Homo sapiens), P10721 [V559D]; experiment: Binding affinity to human Kit V559D mutant cysteine residue assessed as residual binding at 1 uM by site dependent competitive binding assay
[32] = target: Tyrosine-protein kinase JAK3 (Homo sapiens) (UniProt P52333); experiment: Binding affinity to human Jak3 domain 1 assessed as residual binding at 1 uM by site dependent competitive binding assay
[33] = target: T2, Platelet-derived growth factor receptor alpha; experiment: Binding affinity to human PDGFRalpha assessed as residual binding at 1 uM by site dependent competitive binding assay
[34] = target: Serine/threonine-protein kinase MARK2 (Homo sapiens) (UniProt Q7KZI7); experiment: Binding affinity to human Mark2 isoleucine residue assessed as residual binding at 1 uM by site dependent competitive binding assay
[35] = target: T1, Mast/stem cell growth factor receptor Kit; experiment: Binding affinity to human Kit assessed as residual binding at 1 uM by site dependent competitive binding assay
[36] = target: Mitogen-activated protein kinase 9 (Homo sapiens) (UniProt P45984); experiment: Binding affinity to human Jnk2 isoleucine residue assessed as residual binding at 1 uM by site dependent competitive binding assay
[37] = target: Protein-tyrosine kinase 2-beta (Homo sapiens) (UniProt Q14289); experiment: Binding affinity to human Pyk2 assessed as residual binding at 1 uM by site dependent competitive binding assay
[38] = target: Tyrosine-protein kinase Fer (Homo sapiens) (UniProt P16591); experiment: Binding affinity to human Fer assessed as residual binding at 1 uM by site dependent competitive binding assay
[39] = target: Tyrosine-protein kinase ABL2 (Homo sapiens) (UniProt P42684); experiment: Binding affinity to human ABL2 phenylalanine residue assessed as residual binding at 1 uM by site dependent competitive binding assay
[40] = target: Discoidin domain-containing receptor 2 (Homo sapiens) (UniProt Q16832); experiment: Binding affinity to human DDR2 phenylalanine residue assessed as residual binding at 1 uM by site dependent competitive binding assay
[41] = target: Platelet-derived growth factor receptor beta (Homo sapiens) (UniProt P09619); experiment: Binding affinity to human PDGFRbeta cysteine residue assessed as residual binding at 1 uM by site dependent competitive binding assay
[42] = target: Vascular endothelial growth factor receptor 3 (Homo sapiens) (UniProt P35916); experiment: Binding affinity to human Flt4 assessed as residual binding at 1 uM by site dependent competitive binding assay
[43] = target: Macrophage colony-stimulating factor 1 receptor (Homo sapiens) (UniProt P07333); experiment: Binding affinity to human CSF1R assessed as residual binding at 1 uM by site dependent competitive binding assay
[44] = target: Ephrin type-A receptor 8 (Homo sapiens) (UniProt P29322); experiment: Binding affinity to human EPHA8 tyrosine residue assessed as residual binding at 1 uM by site dependent competitive binding assay
[45] = target: Fibroblast growth factor receptor 3 (Homo sapiens) (UniProt P22607); experiment: Binding affinity to human Fgfr3 assessed as residual binding at 1 uM by site dependent competitive binding assay
[46] = target: Tyrosine-protein kinase Fes/Fps (Homo sapiens) (UniProt P07332); experiment: Binding affinity to human Fes assessed as residual binding at 1 uM by site dependent competitive binding assay
[47] = target: Tyrosine-protein kinase Lck (Homo sapiens) (UniProt P06239); experiment: Binding affinity to human LCK tyrosine residue assessed as residual binding at 1 uM by site dependent competitive binding assay
[48] = target: Receptor-type tyrosine-protein kinase FLT3 (Homo sapiens) (UniProt P36888); experiment: Binding affinity to human Flt3 assessed as residual binding at 1 uM by site dependent competitive binding assay
[49] = target: Vascular endothelial growth factor receptor 2 (Homo sapiens) (UniProt P35968); experiment: Binding affinity to human Vegfr2 assessed as residual binding at 1 uM by site dependent competitive binding assay
[50] = target: Serine/threonine-protein kinase 3 (Homo sapiens) (UniProt Q13188); experiment: Binding affinity to human Mst2 […] residue assessed as residual binding at 1 uM by site dependent competitive binding assay
[51] = target: Fibroblast growth factor receptor 1 (Homo sapiens) (UniProt P11362); experiment: Binding affinity to human Fgfr1 assessed as residual binding at 1 uM by site dependent competitive binding assay
[52] = target: Calcium/calmodulin-dependent protein kinase kinase 2 (Homo sapiens) (UniProt Q96RR4); experiment: Binding affinity to human CAMKK2 isoleucine residue assessed as residual binding at 1 uM by site dependent competitive binding assay
[53] = target: T1, Mast/stem cell growth factor receptor Kit; experiment: Binding affinity to human Kit cysteine residue assessed as residual binding at 1 uM by site dependent competitive binding assay

IC50 [1]: 0.245 µM
Structure (SMILES): Cc1ccc(NC(=O)c2ccc(CCl)cc2)cc1Nc1nccc(-c2cccnc2)n1

IC50 [2]: > 20 µM
IC50 [1]: 0.788 µM
Structure (SMILES): Cc1ccc(NC(=O)c2ccc(CN)cc2)cc1Nc1nccc(-c2cccnc2)n1

IC50 [2]: > 20 µM
IC50 [1]: 2.74 µM
Structure (SMILES): C=C(C)C(=O)NCc1ccc(C(=O)Nc2ccc(C)c(Nc3nccc(-c4cccnc4)n3)c2)cc1

Activity [3]: 5.2%
Activity [4]: 99%
Activity [5]: 5.1%
Activity [6]: 97%
Activity [7]: 8.8%
Activity [8]: 0.8%
Activity [9]: 78%
Activity [10]: 85%
Activity [11]: 91%
Activity [12]: 7.2%
Structure (SMILES): Cc1ccc(NC(=O)c2ccc(CN3CCN(C)CC3)cc2)cc1Nc1nccc(-c2cccnc2)n1

Activity [13]: 76%
IC50 [2]: > 20 µM
Activity [14]: 7%
Activity [15]: 100%
Activity [16]: 0.45%
Activity [17]: 100%
Activity [18]: 0.5%
Activity [19]: 86%
IC50 [1]: 0.788 µM
Activity [20]: 1.9%
Activity [21]: 4.6%
Activity [22]: 5%
Activity [23]: 100%
Activity [24]: 69%
IC50 [25]: 1.08 µM
Activity [26]: 18%
Activity [27]: 0.7%
Activity [28]: 100%
Activity [29]: 0%
Activity [30]: 92%
Activity [31]: 0%
Activity [32]: 100%
Activity [33]: 0.7%
Activity [34]: 100%
Activity [35]: 0%
Activity [36]: 4.6%
Activity [37]: 68%
Activity [38]: 95%
Activity [39]: 49%
Activity [40]: 31%
Activity [41]: 0%
Activity [42]: 100%
Activity [43]: 5%
Activity [44]: 100%
Activity [45]: 100%
Activity [46]: 100%
Activity [47]: 64%
Activity [48]: 81%
Activity [49]: 64%
Activity [50]: 100%
Activity [51]: 100%
Activity [52]: 100%
Activity [53]: 0%
Structure (SMILES): Cc1ccc(NC(=O)c2ccc(CNC(=O)CCl)cc2)cc1Nc1nccc(-c2cccnc2)n1

IC50 [2]: > 20 µM
IC50 [1]: 4.71 µM
Structure (SMILES): C/C=C/C(=O)NCc1ccc(C(=O)Nc2ccc(C)c(Nc3nccc(-c4cccnc4)n3)c2)cc1
